Measurements reported in article PMC6133092, “Synthesis of 2-alkylthio-N-(quinazolin-2-yl)benzenesulfonamide derivatives: anticancer activity, QSAR studies, and metabolic stability” (Monatshefte Fur Chemie, 2018).

Experiments:
HeLa (cervical cancer) = experiment: MTT cell viability assay, HeLa; assay type: cell-based; conditions: Homo sapiens
Method: (§1) All chemicals, if not stated otherwise, were obtained from Sigma-Aldrich (St. Louis, MO, USA). The MCF-7 and HeLa cell lines were purchased from Cell Lines Services (Eppelheim, Germany), the HCT-116 cell line was purchased from ATCC (ATCC-No: CCL-247). Cells were cultured in Dulbecco’s modified Eagle’s medium (DMEM) supplemented with 10% fetal bovine serum, 2 mM glutamine, 100 units/cm^3 penicillin, and 100 μg/cm^3 streptomycin. Cultures were maintained in a humidified atmosphere with 5% CO2 at 37 °C in an incubator (Heraceus, HeraCell).
(§2) Cell viability was determined using the MTT (3-(4,5-dimethylthiazol-2-yl)-2,5-diphenyltetrazolium bromide) assay. Cells were seeded in 96-well plates at a density of 5 × 10^3 cells/well and treated for 72 h with the examined compounds in the concentration range 1–100 μM (1, 10, 25, 50, and 100 μM). Following treatment, MTT (0.5 mg/cm^3) was added to the medium and cells were further incubated for 2 h at 37 °C. Cells were lysed with DMSO and the absorbance of the formazan solution was measured at 550 nm with a plate reader (Victor, 1420 multilabel counter). […] The experiment was performed in triplicate. Values are expressed as the mean ± SD of at least three independent experiments.

HCT-116 (colon cancer) = experiment: MTT cell viability assay, HCT-116; assay type: cell-based; conditions: Homo sapiens, 72 h, mean ± SD
Method: as §1, §2

MOLT-4 = experiment: NCI-60 single dose screen, MOLT-4; assay type: cell-based; conditions: Homo sapiens, Leukemia, single concentration 10^−5 M, read-out: IGP (inhibition growth percent) MOLT-4
Method: (§3) Aside from above, compounds 9–14 and 17–24 were also submitted to National Cancer Institute and evaluated for the cytotoxic effects toward 60 cell lines at a single dose of 10 μM (Table 2). […] As it was summarized in Table 2, leukemia RPMI-8226 and NSCLC A549/ATCC were most sensitive to compounds 18, 22, and 24. These derivatives in 10 μM concentration inhibited the growth of approximately 50% cells belonging to the above mention cell lines.
(§4) Cytotoxicity evaluation of compounds 9–14 and 17–24 was performed at the National Cancer Institute according to NCI-60 DTP human tumor cell line screen procedure.

EKVX = experiment: NCI-60 single dose screen, EKVX; assay type: cell-based; conditions: Homo sapiens, NSCLC, single concentration 10^−5 M, read-out: IGP (inhibition growth percent) EKVX
Method: as §3, §4

UO-31 = experiment: NCI-60 single dose screen, UO-31; assay type: cell-based; conditions: Homo sapiens, Renal cancer, single concentration 10^−5 M, read-out: IGP (inhibition growth percent) UO-31
Method: as §3, §4

RPMI-8226 = experiment: NCI-60 single dose screen, RPMI-8226; assay type: cell-based; conditions: Homo sapiens, RPMI-8226, Leukemia; single concentration 10^−5 M; read-out: IGP (inhibition growth percent) RPMI-8226
Method: as §3, §4

[1] = Metabolic stability in human liver microsomes with NADPH; assay type: in vitro ADME; conditions: pooled human liver microsomes, pH 7.4, human liver microsomes 0.5 mg/cm^3, NADPH 1 mM, 10 μM compound, 37 °C, read-out: in vitro metabolic half-life t1/2
Method: Selected derivatives were submitted to metabolic stability study to assess their ability to remain unchanged in the presence of human metabolic enzymes. Human liver microsomes were used as they are a rich source of all common CYP isoenzymes. In vitro incubations were performed in the presence of NADPH as a cofactor and the disappearance of a derivative was followed using LC–MS technique. The in vitro metabolic half-life values are gathered in Fig. 3.
Stock solutions of studied compounds were prepared at concentration of 10 mM in DMSO. […] Incubation mixture contained 10 μM of a studied derivative, 1 mM of NADPH (Sigma-Aldrich) and 0.5 mg/cm^3 of pooled human liver microsomes (HLM, Sigma-Aldrich) in potassium phosphate buffer (0.1 M, pH 7.4). Incubation was carried out in thermostat at 37 °C and started by addition of studied compound. 50 mm^3 samples were taken at starting point and after 5, 15, 30, 45, and 60 min. Enzymatic reaction was terminated by the addition of the equal volume of ice-cold acetonitrile. Incubations were performed in triplicates, the average t1/2 and standard deviation was calculated. Control incubations were performed without NADPH to assess chemical instability. After collection, samples were immediately centrifuged (10 min, 10,000 rpm) and resulted supernatant was directly analyzed or kept in − 80 °C until LC–MS analysis. Natural logarithm of a compound over IS peak area ratio was plotted versus incubation time. Metabolic half-time (t1/2) was calculated from the slope of the linear regression.
LC–MS analysis was performed on an Agilent 1260 system coupled to SingleQuad 6120 mass spectrometer (Agilent Technologies, Santa Clara, CA, USA). Poroshell EC-C18 (2.1 mm × 150 mm, 2.7 μm, Agilent Technologies, Santa Clara, CA, USA) was used in reversed-phase mode with gradient elution starting with 5% of phase A (10 mM ammonium formate in water) and 95% of phase B (10 mM ammonium formate in acetonitrile–water mixture, 95:5 v/v). […] Total analysis time was 15 min at 40 °C, flow rate was 1 cm^3/min and the injection volume was 5 mm^3. The mass spectrometer was equipped with electrospray ion source and operated in positive ionization. Mass analyzer was set individually to each compound to detect [M+H]^+ protonated molecule. MSD parameters of the ESI source were as follows: nebulizer pressure 35 psig (N2), drying gas […] (N2), drying gas temperature 300 °C, capillary voltage 3 kV, fragmentor voltage 150 V.

HOP-92 = experiment: NCI-60 single dose screen, HOP-92; assay type: cell-based; conditions: Homo sapiens, NSCLC, single concentration 10^−5 M, read-out: IGP (inhibition growth percent) HOP-92
Method: as §3, §4

MCF-7 = experiment: NCI-60 single dose screen, MCF-7; assay type: cell-based; conditions: Homo sapiens, MCF7; Breast cancer; single concentration 10^−5 M; read-out: IGP (inhibition growth percent) MCF-7
Method: as §3, §4

MCF-7 (breast cancer) = experiment: MTT cell viability assay, MCF-7; assay type: cell-based, human; conditions: Homo sapiens, MCF7, 72 h, mean ± SD
Method: (§5) All of the newly synthesized compounds 9–24 were evaluated for their effects on cell viability in three human cancer cell lines: HCT-116 (colon cancer), HeLa (cervical cancer), and MCF-7 (breast cancer). Cisplatin was used as reference drug. […] Considering the activity of derivatives 9–12, 15, 17, 18, and 21–24, it can be noticed that phenyl group as R^3 bring an increase of cytotoxicity in comparison with methyl in place of R^3. However, this impact seems to be the most important for compounds with the bulky group in R^1 and generally, it is less for a set of derivatives with methyl group substituted in R^1 (9–12).
as §1, §2

UACC-62 = experiment: NCI-60 single dose screen, UACC-62; assay type: cell-based; conditions: Homo sapiens, Melanoma, single concentration 10^−5 M, read-out: IGP (inhibition growth percent) UACC-62
Method: as §3, §4

SR = experiment: NCI-60 single dose screen, SR; assay type: cell-based; conditions: Homo sapiens, Leukemia, single concentration 10^−5 M, read-out: IGP (inhibition growth percent) SR
Method: as §3, §4

HCT-116 = experiment: NCI-60 single dose screen, HCT-116; assay type: cell-based; conditions: Homo sapiens, Colon cancer, single concentration 10^−5 M, read-out: IGP (inhibition growth percent) HCT-116
Method: as §3, §4

HaCaT = experiment: Cytotoxic effect against non-carcinogenic cell line HaCaT; assay type: cell-based
Method: For the compounds with the strongest cytotoxicity (12, 18, 22, and 24), an investigation of cytotoxic effect against non-carcinogenic cell line HaCaT was done. […] The activity against HCT-116 was 1.7-, 1.6-, 1.5-, and 1.4-fold higher when compared with HaCaT cell line, for compounds 12, 18, 22, and 24, respectively.
as §2

HCT-116, HeLa, MCF-7 = experiment: MTT assays, mean over three tested cell lines; assay type: cell-based; conditions: Homo sapiens, mean of HCT-116, HeLa, read-out: mean IC50 against three tested cell lines
Method: as §5, §2

A549/ATCC = experiment: NCI-60 single dose screen, A549/ATCC; assay type: cell-based; conditions: Homo sapiens, A549, NSCLC; single concentration 10^−5 M; read-out: IGP (inhibition growth percent) A549/ATCC
Method: as §3, §4

NCI-H522 = experiment: NCI-60 single dose screen, NCI-H522; assay type: cell-based; conditions: Homo sapiens, NSCLC, single concentration 10^−5 M, read-out: IGP (inhibition growth percent) NCI-H522
Method: as §3, §4

PC-3 = experiment: NCI-60 single dose screen, PC-3; assay type: cell-based; conditions: Homo sapiens, Prostate cancer, single concentration 10^−5 M, read-out: IGP (inhibition growth percent) PC-3
Method: as §3, §4

[2] = Table 4, repeats Table 1 values without SD and unit

| Compound | IC50 (HeLa (cervical cancer); MTT, 72 h, mean ± SD) [µM] | IC50 (HeLa (cervical cancer); [2]) [µM] | melting point | IC50 (HCT-116 (colon cancer)) [µM] | half-life at 10 μM [1] [min] | IC50 (MCF-7 (breast cancer)) [µM] | inhibition at 10 µM (MOLT-4) [%] | inhibition at 10 µM (EKVX) [%] | inhibition at 10 µM (UO-31) [%] | inhibition at 10 µM (RPMI-8226) [%] | inhibition at 10 µM (HOP-92) [%] | inhibition at 10 µM (MCF-7) [%] | inhibition at 10 µM (UACC-62) [%] | inhibition at 10 µM (SR) [%] | inhibition at 10 µM (HCT-116) [%] | inhibition at 10 µM (A549/ATCC) [%] | inhibition at 10 µM (NCI-H522) [%] | inhibition at 10 µM (PC-3) [%] | other results |
| --- | --- | --- | --- | --- | --- | --- | --- | --- | --- | --- | --- | --- | --- | --- | --- | --- | --- | --- | --- |
| Cc1cc(S(=O)(=O)Nc2nc(C)c3ccccc3n2)c(SCC(N)=O)cc1Cl [Compound 13, 2-Carbamoylmethylthio-4-chloro-5-methyl-N-(4-methylquinazolin-2-yl)benzenesulfonamide] | 320 ± 22 | – | 232 to 235 °C (dec.) | 260 ± 5 | 75.4 | 440 ± 4 | 11 | 5 | 8 | – | – | 6 | – | 12 | – | – | 4 | – | – |
| CCOC(=O)CSc1cc(Cl)c(C)cc1S(=O)(=O)Nc1nc(C)c2ccccc2n1 [Compound 15, 4-Chloro-2-(2-ethoxy-2-oxoethylthio)-5-methyl-N-(4-methylquinazolin-2-yl)benzenesulfonamide] | 230 ± 7 | – | 192 to 194 °C | 110 ± 2 | – | 160 ± 6 | – | – | – | – | – | – | – | – | – | – | – | – | – |
| CCOC(=O)CSc1cc(Cl)c(C)cc1S(=O)(=O)Nc1nc(-c2ccccc2)c2ccccc2n1 [Compound 16, 4-Chloro-2-(2-ethoxy-2-oxoethylthio)-5-methyl-N-(4-phenyl-quinazolin-2-yl)benzenesulfonamide] | 74 ± 4 | 74 | 162 to 165 °C | 62 ± 1 | – | 105 ± 3 | – | – | – | – | – | – | – | – | – | – | – | – | – |

Stronger by IC50 (HeLa (cervical cancer); MTT, 72 h, mean ± SD), values ahead:

| IC50 (HeLa (cervical cancer); MTT, 72 h, mean ± SD) [µM] | IC50 (HeLa (cervical cancer); [2]) [µM] | melting point | IC50 (HCT-116 (colon cancer)) [µM] | half-life at 10 μM [1] [min] | IC50 (MCF-7 (breast cancer)) [µM] | Compound | inhibition at 10 µM (MOLT-4) [%] | inhibition at 10 µM (EKVX) [%] | inhibition at 10 µM (UO-31) [%] | inhibition at 10 µM (RPMI-8226) [%] | inhibition at 10 µM (HOP-92) [%] | inhibition at 10 µM (MCF-7) [%] | inhibition at 10 µM (UACC-62) [%] | inhibition at 10 µM (SR) [%] | inhibition at 10 µM (HCT-116) [%] | inhibition at 10 µM (A549/ATCC) [%] | inhibition at 10 µM (NCI-H522) [%] | inhibition at 10 µM (PC-3) [%] | other results |
| --- | --- | --- | --- | --- | --- | --- | --- | --- | --- | --- | --- | --- | --- | --- | --- | --- | --- | --- | --- |
| 61 ± 2 | 61 | 192 to 198 °C | 44 ± 1 | 49.2 | 57 ± 1 | Cc1cc(S(=O)(=O)Nc2nc(-c3ccccc3)c3ccccc3n2)c(SCc2ccccc2)cc1Cl [Compound 10, 2-Benzylthio-4-chloro-5-methyl-N-(4-phenylquinazolin-2-yl)benzenesulfonamide] | 25 | 6 | 5 | 25 | 17 | 9 | 29 | 14 | 8 | – | – | – | – |
| 46 ± 1 | 46 | – | 37 ± 1 | 48.1 | 51 ± 2 | Cc1cc(S(=O)(=O)Nc2nc(-c3ccccc3)c3ccccc3n2)c(SCc2cc3c(cc2Cl)OCO3)cc1Cl [Compound 12, 4-Chloro-2-(6-chlorobenzo[d][1,3]dioxol-5-ylmethylthio)-5-methyl-N-(4-phenylquinazolin-2-yl)benzenesulfonamide] | 12 | – | 25 | 2 | – | 5 | 33 | – | 6 | 14 | 16 | 14 | IC50 (HaCaT; Homo sapiens, HaCaT, non-carcinogenic cell line, mean ± SD): 64 ± 2 µM; activity against HCT-116 fold higher compared with HaCaT (HaCaT; selectivity HCT-116 vs HaCaT): 1.7 fold; inhibition of growth of HaCaT cells fold weaker than HeLa cells (HaCaT; selectivity HeLa vs HaCaT): 1.4 fold; IC50 (HCT-116, HeLa, MCF-7): 44.7 µM |
| 71 ± 2 | 71 | – | 54 ± 1 | 37.7 | 115 ± 2 | Cc1nc(NS(=O)(=O)c2cc(C(=O)Nc3ccc(Cl)cc3)c(Cl)cc2SCc2ccccc2)nc2ccccc12 [Compound 21, 2-Benzylthio-4-chloro-5-(4-chlorophenylcarbamoyl)-N-(4-methylquinazolin-2-yl)benzenesulfonamide] | 7 | 8 | 22 | 12 | 8 | 5 | 6 | 3 | 4 | 8 | 20 | 8 | – |
